Test results as given in US8796292B2, “Selective antibacterials for clostridium difficile infections” (GLSynthesis Inc., priority 2009, dated 2014).
≈ marks a conversion by molar mass, not a printed value. Read-outs that look alike come from different tables or passages of the source.

Columns and labels:
Experiment in all cases: agar dilution MIC assay of anaerobic bacteria
[1] = system: L. casei; type: cell-based, Lactobacillus casei; details: Lacticaseibacillus casei, Micromyx Number 1722, Table 1
Method: (§1) Each compound was assayed against a panel of anaerobic bacteria in culture, consisting of Gram-positive organisms, such as Lactobacilli, Bifidobacteria, Clostridium spp., and Gram-negative bacteria, such as […] fragilis spp., according to guidelines of the Clinical and Laboratory Standards Institute (CLSI document M11-A7, CLSI, Wayne, Pa., 2007). […] One tenth mL of diluted bacteria containing 500-1000 colony-forming units (CFU) was plated and spread, and the plates incubated at 37° C. for 24-48 hours. MIC (minimum inhibitory concentration) is equivalent to the lowest concentration in μg/ml at which growth, i.e., colony formation, is not observed. […] Bacteria were assayed using a reference agar dilution method. Drug dilutions and drug-supplemented agar plates were prepared manually. The test organisms were maintained frozen at −80° C. The isolates were sub-cultured on Supplemented Brucella Agar (SBA) plates in a Bactron II anaerobic chamber and incubated for 48 hours at 35-36° C. in the Bactron II anaerobe chamber. Following inoculation, the drug-supplemented plates were incubated at 35° C. for 48 hours in the anaerobic environment (5% hydrogen, 5% carbon dioxide, 90% nitrogen) of the Bactron II. The MIC in μg/ml was read per Clinical and Laboratory Standards Institute guidelines.

[2] = system: Bi. brevi; type: cell-based, Bifidobacterium brevi; details: Bifidobacterium; Bi. brevi, Micromyx Number 3967, Table 1
Method: as §1

[3] = system: C. difficile; type: cell-based, Clostridium difficile; details: for MIC: Clostridioides difficile, read-out: MIC
Method: as §1

[4] = system: E. lentum; type: cell-based, Eubacterium lentum; details: Eggerthella lenta; E. lentum, Micromyx Number 1274, Table 1; read-out: MIC
Method: as §1

[5] = system: L. acidophilus; type: cell-based; details: Lactobacillus acidophilus, Micromyx Number 0681, Table 1
Method: as §1

[6] = system: Ba. fragilis; type: cell-based; details: Bacteroides fragilis, Micromyx Number 0123 (ATCC strain)
Method: as §1

[7] = system: Bi. longum; type: cell-based, Bifidobacterium longum; details: Bifidobacterium longum; Bi. longum, Micromyx Number 3968, Table 1; read-out: MIC
Method: as §1

[8] = C. diff., Micromyx Number 3579, Table 2
[9] = C. diff., Micromyx Number 3580, Table 2
[10] = C. diff., Micromyx Number 3581, Table 2
[11] = C. diff., Micromyx Number 3582 (ATCC strain), Table 2
[12] = C. difficile, Micromyx Number 1209, Table 1
[13] = C. difficile, Micromyx Number 3579, Table 1
[14] = C. difficile, Micromyx Number 3580, Table 1
[15] = C. difficile, Micromyx Number 3581, Table 1
[16] = C. difficile, Micromyx Number 3582, Table 1
[17] = C. difficile, Micromyx Number 3584, Table 1
[18] = C. difficile, Micromyx Number 3585, Table 1
[19] = C. difficile, Micromyx Number 3586, Table 1
[20] = C. difficile, Micromyx Number 3587, Table 1
[21] = C. difficile, Micromyx Number 3588, Table 1
[22] = C. difficile, Micromyx Number 3589, Table 1
[23] = C. difficile, Micromyx Number 3590, Table 1
[24] = C. difficile, Micromyx Number 3591, Table 1
[25] = C. difficile, Micromyx Number 3593, Table 1
[26] = C. difficile, Micromyx Number 3594, Table 1
[27] = C. difficile, Micromyx Number 3595, Table 1
[28] = C. difficile, Micromyx Number 4381 (ATCC strain), Table 1
[29] = Ba. fragilis, Gram negative, Table 1

In the case of `CN[C@H](CC(C)C)C(=O)N[C@H]1C(=O)N[C@@H](CC(N)=O)C(=O)N[C@H]2C(=O)N[C@H]3C(=O)N[C@H](C(=O)N[C@H](C(=O)O)c4cc(O)cc(O)c4-c4cc3ccc4O)[C@H](O)c3ccc(c(Cl)c3)Oc3cc2cc(c3O[C@@H]2O[C@H](CO)[C@@H](O)[C@H](O)[C@H]2O[C@H]2C[C@](C)(N)[C@H](O)[C@H](C)O2)Oc2ccc(cc2Cl)[C@H]1O` [vancomycin, reference compound], the MIC [1] is reported as > 16 mg/L, the MIC [2] is reported as 2 mg/L (≈ 1.38 µM) and the MIC ([3]; C. diff. Strain no. 18285, Table 4) is reported as 1 mg/L (≈ 0.69 µM). It also gave an MIC ([3]; C. diff. Strain no. 19265, Table 4) of 1 mg/L (≈ 0.69 µM), an MIC ([3]; C. diff. Strain no. 19273, Table 4) of 1 mg/L (≈ 0.69 µM) and an MIC ([3]; C. diff. Strain no. 19281, Table 4) of 1 mg/L (≈ 0.69 µM). It also gave an MIC ([3]; C. diff. Strain no. 19291, Table 4) of 1 mg/L (≈ 0.69 µM), an MIC ([3]; C. diff. Strain no. 19369, Table 4) of 1 mg/L (≈ 0.69 µM) and an MIC ([3]; C. diff. Strain no. 19382, Table 4) of 4 mg/L (≈ 2.76 µM). For the same molecule, the MIC ([3]; C. diff. Strain no. 19540, Table 4) was 1 mg/L (≈ 0.69 µM), the MIC ([3]; C. diff. Strain no. 19580, Table 4) was 4 mg/L (≈ 2.76 µM) and the MIC ([3]; C. diff. Strain no. 19680, Table 4) was 1 mg/L (≈ 0.69 µM). The MIC ([3]; C. diff. Strain no. 19681, Table 4) was 2 mg/L (≈ 1.38 µM), the MIC ([3]; C. diff. Strain no. 19683, Table 4) was 8 mg/L (≈ 5.52 µM) and the MIC ([3]; C. diff. Strain no. 19687, Table 4) was 1 mg/L (≈ 0.69 µM). The MIC ([3]; C. diff. Strain no. 20066, Table 4) was 4 mg/L (≈ 2.76 µM), the MIC ([3]; C. diff. Strain no. 20152, Table 4) was 1 mg/L (≈ 0.69 µM) and the MIC ([3]; C. diff. Strain no. 20307, Table 4) was 2 mg/L (≈ 1.38 µM). The MIC ([3]; C. diff. Strain no. 20494, Table 4) was 4 mg/L (≈ 2.76 µM), the MIC ([3]; C. diff. Strain no. 20680, Table 4) was 1 mg/L (≈ 0.69 µM) and the MIC ([3]; C. diff. Strain no. 20934, Table 4) was 4 mg/L (≈ 2.76 µM). It also gave an MIC ([3]; C. diff. Strain no. 21099, Table 4) of 2 mg/L (≈ 1.38 µM), an MIC [3, 8] of 1 mg/L (≈ 0.69 µM) and an MIC [3, 9] of 1 mg/L (≈ 0.69 µM). It also gave an MIC [3, 10] of 4 mg/L (≈ 2.76 µM), an MIC [3, 11] of 2 mg/L (≈ 1.38 µM) and an MIC [3, 12] of 1 mg/L (≈ 0.69 µM). It also gave an MIC [3, 13] of 1 mg/L (≈ 0.69 µM), an MIC [3, 14] of 1 mg/L (≈ 0.69 µM) and an MIC [3, 15] of 1 mg/L (≈ 0.69 µM). The MIC [3, 16] was 0.25 mg/L (≈ 0.173 µM), the MIC [3, 17] was 0.5 mg/L (≈ 0.345 µM) and the MIC [3, 18] was 0.5 mg/L (≈ 0.345 µM). It also gave an MIC [3, 19] of 0.5 mg/L (≈ 0.345 µM), an MIC [3, 20] of 1 mg/L (≈ 0.69 µM) and an MIC [3, 21] of 2 mg/L (≈ 1.38 µM). The MIC [3, 22] was 0.5 mg/L (≈ 0.345 µM), the MIC [3, 23] was 1 mg/L (≈ 0.69 µM) and the MIC [3, 24] was 2 mg/L (≈ 1.38 µM). For the same molecule, the MIC [3, 25] was 0.5 mg/L (≈ 0.345 µM), the MIC [3, 26] was 1 mg/L (≈ 0.69 µM) and the MIC [3, 27] was 1 mg/L (≈ 0.69 µM). It also gave an MIC [3, 28] of 1 mg/L (≈ 0.69 µM), an MIC [4] of 2 mg/L (≈ 1.38 µM) and an MIC [5] of 2 mg/L (≈ 1.38 µM). For the same molecule, the MIC ([6]; B. fragilis, Table 2) was 32 mg/L (≈ 22.1 µM), the MIC [6, 29] was > 16 mg/L and the MIC [7] was 0.5 mg/L (≈ 0.345 µM).
In the case of `CC(C)C(=O)OCCCCCn1cnc2nc(NCc3ccc(Cl)c(Cl)c3)[nH]c(=O)c21` [Compound 332E], the MIC [1] is reported as > 32 mg/L, the MIC [2] is reported as 32 mg/L (≈ 68.6 µM) and the MIC [3, 8] is reported as 4 mg/L (≈ 8.58 µM). For the same molecule, the MIC [3, 9] was 4 mg/L (≈ 8.58 µM), the MIC [3, 10] was 2 mg/L (≈ 4.29 µM) and the MIC [3, 11] was 4 mg/L (≈ 8.58 µM). For the same molecule, the MIC [3, 12] was 4 mg/L (≈ 8.58 µM), the MIC [3, 13] was 4 mg/L (≈ 8.58 µM) and the MIC [3, 14] was 4 mg/L (≈ 8.58 µM). For the same molecule, the MIC [3, 15] was 4 mg/L (≈ 8.58 µM), the MIC [3, 16] was 16 mg/L (≈ 34.3 µM) and the MIC [3, 17] was 2 mg/L (≈ 4.29 µM). It also gave an MIC [3, 18] of 4 mg/L (≈ 8.58 µM), an MIC [3, 19] of 2 mg/L (≈ 4.29 µM) and an MIC [3, 20] of 4 mg/L (≈ 8.58 µM). For the same molecule, the MIC [3, 21] was 1 mg/L (≈ 2.14 µM), the MIC [3, 22] was 4 mg/L (≈ 8.58 µM) and the MIC [3, 23] was 4 mg/L (≈ 8.58 µM). For the same molecule, the MIC [3, 24] was 4 mg/L (≈ 8.58 µM), the MIC [3, 25] was 4 mg/L (≈ 8.58 µM) and the MIC [3, 26] was 4 mg/L (≈ 8.58 µM). The MIC [3, 27] was 4 mg/L (≈ 8.58 µM), the MIC [3, 28] was 2 mg/L (≈ 4.29 µM) and the “potency and selectivity against C. diff. versus other Gram-positive anaerobes (in words)” value ([3]; summary of MIC panels, Tables 1 and 3) was “most potent and selective”. The MIC [4] was 32 mg/L (≈ 68.6 µM), the MIC [5] was 8 mg/L (≈ 17.2 µM) and the MIC ([6]; B. fragilis, Table 2) was > 32 mg/L. The MIC [6, 29] was > 32 mg/L and the MIC [7] was > 32 mg/L.
For `CCc1cc(Nc2cc(=O)n(CCCCO)c(=O)[nH]2)ccc1C` [Compound 179E], the MIC [1] was 32 mg/L (≈ 101 µM), the MIC [2] was > 32 mg/L and the MIC [3, 12] was 16 mg/L (≈ 50.4 µM). The MIC [3, 13] was 16 mg/L (≈ 50.4 µM), the MIC [3, 14] was 4 mg/L (≈ 12.6 µM) and the MIC [3, 15] was 8 mg/L (≈ 25.2 µM). For the same molecule, the MIC [3, 16] was 16 mg/L (≈ 50.4 µM), the MIC [3, 17] was 4 mg/L (≈ 12.6 µM) and the MIC [3, 18] was 16 mg/L (≈ 50.4 µM). It also gave an MIC [3, 19] of 4 mg/L (≈ 12.6 µM), an MIC [3, 20] of 8 mg/L (≈ 25.2 µM) and an MIC [3, 21] of 1 mg/L (≈ 3.15 µM). For the same molecule, the MIC [3, 22] was 16 mg/L (≈ 50.4 µM), the MIC [3, 23] was 8 mg/L (≈ 25.2 µM) and the MIC [3, 24] was 8 mg/L (≈ 25.2 µM). It also gave an MIC [3, 25] of 16 mg/L (≈ 50.4 µM), an MIC [3, 26] of 4 mg/L (≈ 12.6 µM) and an MIC [3, 27] of 4 mg/L (≈ 12.6 µM). For the same molecule, the MIC [3, 28] was 4 mg/L (≈ 12.6 µM), the MIC [4] was > 32 mg/L and the MIC [5] was 32 mg/L (≈ 101 µM). The MIC [6, 29] was > 32 mg/L and the MIC [7] was > 32 mg/L.
Molecule `CCC[C@@H]1C[C@@H](C(=O)N[C@@H]([C@H]2O[C@H](SC)[C@H](O)[C@@H](O)[C@H]2O)[C@H](C)Cl)N(C)C1` [clindamycin, reference compound] has an MIC [1] of 2 mg/L (≈ 4.71 µM), an MIC [2] of 0.12 mg/L (≈ 0.282 µM) and an MIC [3, 12] of 4 mg/L (≈ 9.41 µM). For the same molecule, the MIC [3, 13] was 16 mg/L (≈ 37.6 µM), the MIC [3, 14] was 8 mg/L (≈ 18.8 µM) and the MIC [3, 15] was > 16 mg/L. It also gave an MIC [3, 16] of 0.5 mg/L (≈ 1.18 µM), an MIC [3, 17] of 8 mg/L (≈ 18.8 µM) and an MIC [3, 18] of 8 mg/L (≈ 18.8 µM). The MIC [3, 19] was 8 mg/L (≈ 18.8 µM), the MIC [3, 20] was 8 mg/L (≈ 18.8 µM) and the MIC [3, 21] was 8 mg/L (≈ 18.8 µM). The MIC [3, 22] was > 16 mg/L, the MIC [3, 23] was 8 mg/L (≈ 18.8 µM) and the MIC [3, 24] was 8 mg/L (≈ 18.8 µM). For the same molecule, the MIC [3, 25] was 8 mg/L (≈ 18.8 µM), the MIC [3, 26] was > 16 mg/L and the MIC [3, 27] was > 16 mg/L. It also gave an MIC [3, 28] of 4 mg/L (≈ 9.41 µM), an MIC [4] of 0.12 mg/L (≈ 0.282 µM) and an MIC [5] of 4 mg/L (≈ 9.41 µM). The MIC [6, 29] was 1 mg/L (≈ 2.35 µM) and the MIC [7] was ≤ 0.03 mg/L.
